Among the data in patent US10144706B2 (BRISTOL-MYERS SQUIBB COMPANY, priority 2016, dated 2018) are IC50 values, retold here.

Structures are written as SMILES.

The target of the first test is T1, PD-1/PD-L1 interaction (PD-1-Ig / PD-L1-His) (Homo sapiens, UniProt Q9NZQ7).
T1 construct: hPDL1(18-239)-TVMV-His; TVMV protease site linker (C); made in house; host or cells: HEK293T
T1 sequence (Q9NZQ7 with tags, fused parts or gaps): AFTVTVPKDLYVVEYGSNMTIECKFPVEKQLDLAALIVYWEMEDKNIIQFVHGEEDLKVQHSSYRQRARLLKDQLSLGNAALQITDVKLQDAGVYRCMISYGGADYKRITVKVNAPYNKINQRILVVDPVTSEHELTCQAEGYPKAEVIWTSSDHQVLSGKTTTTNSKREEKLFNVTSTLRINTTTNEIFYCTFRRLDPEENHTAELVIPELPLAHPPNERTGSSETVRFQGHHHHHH
The test can be described thus: PD-1/PD-L1 Homogenous Time-Resolved Fluorescence (HTRF) binding assay. The settings on record: IC50 range class; PD-L1-His 10 nM, PD-1-Ig 20 nM; read-out: Range or IC50. In outline: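 Human PD-L1-His (10 nM final) was pre-incubated with inhibitor for 15 min, then PD-1-Ig (20 nM final) was added for a further 15 min in dPBS with 0.1% BSA and 0.05% Tween-20. Binding was detected by HTRF using Eu-cryptate anti-Ig (1 nM) and APC anti-His (20 nM).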
(In TR-FRET formats the signal depends on donor and acceptor labels being close together.)
In the case of `Cc1c(COc2cc(OCc3cc(F)cc(F)c3)c(CN(C)C(CO)CO)cc2Cl)cccc1-c1cccc(COc2cc(OCc3cc(F)cc(F)c3)c(CN(C)C(CO)CO)cc2Cl)c1C` [Example 5005, 2,2′-((((((2,2′-dimethyl-[1,1′-biphenyl]-3,3′-diyl)bis(methylene))bis(oxy))bis(5-chloro-2-((3,5-difluorobenzyl)oxy)-4,1-phenylene))bis(methylene))bis(methylazanediyl))bis(propane-1,3-diol)], the IC50 (in general, the midpoint of a concentration-inhibition curve) fell in the range of 90.1 to 1000 nM.

`Cc1c(COc2cc(OCc3cc(F)cc(F)c3)c(CN3CCCC[C@H]3C(=O)O)cc2Cl)cccc1-c1cccc(COc2cc(OCc3cc(F)cc(F)c3)c(CN3CCCC[C@H]3C(=O)O)cc2Cl)c1C` [Example 5006, (2S,2′S)-1,1′-(((((2,2′-dimethyl-[1,1′-biphenyl]-3,3′-diyl)bis(methylene))bis(oxy))bis(5-chloro-2-((3,5-difluorobenzyl)oxy)-4,1-phenylene))bis(methylene))bis(piperidine-2-carboxylic acid)]: the IC50 was 0.04 to 20 nM.

In the case of `Cc1c(COc2cc(OCc3cc(F)cc(F)c3)c(CNC(C)(CO)CO)cc2Cl)cccc1-c1cccc(COc2cc(OCc3cc(F)cc(F)c3)c(CNC(C)(CO)CO)cc2Cl)c1C` [Example 5007, 2,2′-((((((2,2′-dimethyl-[1,1′-biphenyl]-3,3′-diyl)bis(methylene))bis(oxy))bis(5-chloro-2-((3,5-difluorobenzyl)oxy)-4,1-phenylene))bis(methylene))bis(azanediyl))bis(2-methylpropane-1,3-diol)], the IC50 fell in the range of 0.04 to 20 nM.

As to `Cc1c(COc2cc(OCc3cc(F)cc(F)c3)c(CN[C@@H](CO)C(=O)O)cc2Cl)cccc1-c1cccc(COc2cc(OCc3cc(F)cc(F)c3)c(CN[C@@H](CO)C(=O)O)cc2Cl)c1C` [Example 5008, (2S,2′S)-2,2′-((((((2,2′-dimethyl-[1,1′-biphenyl]-3,3′-diyl)bis(methylene))bis(oxy))bis(5-chloro-2-((3,5-difluorobenzyl)oxy)-4,1-phenylene))bis(methylene))bis(azanediyl))bis(3-hydroxypropanoic acid)], the IC50 lay in the range of 20.1 to 90 nM.

`Cc1c(COc2cc(OCc3cc(F)cc(F)c3)c(CN[C@@](C)(CO)C(=O)O)cc2Cl)cccc1-c1cccc(COc2cc(OCc3cc(F)cc(F)c3)c(CN[C@@](C)(CO)C(=O)O)cc2Cl)c1C` [Example 5009, (2S,2′S)-2,2′-((((((2,2′-dimethyl-[1,1′-biphenyl]-3,3′-diyl)bis(methylene))bis(oxy))bis(5-chloro-2-((3,5-difluorobenzyl)oxy)-4,1-phenylene))bis(methylene))bis(azanediyl))bis(3-hydroxy-2-methylpropanoic acid)]: the IC50 was 0.04 to 20 nM.

For the compound `Cc1c(COc2cc(OCc3cc(F)cc(F)c3)c(CN(C)C(C)(CO)CO)cc2Cl)cccc1-c1cccc(COc2cc(OCc3cc(F)cc(F)c3)c(CN(C)C(C)(CO)CO)cc2Cl)c1C` [Example 5012, 2,2′-((((((2,2′-dimethyl-[1,1′-biphenyl]-3,3′-diyl)bis(methylene))bis(oxy))bis(5-chloro-2-((3,5-difluorobenzyl)oxy)-4,1-phenylene))bis(methylene))bis(methylazanediyl))bis(2-methylpropane-1,3-diol)], the IC50 was in the range of 20.1 to 90 nM.

In the case of `Cc1c(COc2cc(OCc3cc(F)cc(F)c3)c(CN(C)[C@@H](CO)C(=O)O)cc2Cl)cccc1-c1cccc(COc2cc(OCc3cc(F)cc(F)c3)c(CN(C)[C@@H](CO)C(=O)O)cc2Cl)c1C` [Example 5013, (2S,2′S)-2,2′-((((((2,2′-dimethyl-[1,1′-biphenyl]-3,3′-diyl)bis(methylene))bis(oxy))bis(5-chloro-2-((3,5-difluorobenzyl)oxy)-4,1-phenylene))bis(methylene))bis(methylazanediyl))bis(3-hydroxypropanoic acid)], the IC50 fell in the range of 20.1 to 90 nM.

In the case of `Cc1c(COc2cc(OCc3cc(F)cc(F)c3)c(CN(C)[C@@](C)(CO)C(=O)O)cc2Cl)cccc1-c1cccc(COc2cc(OCc3cc(F)cc(F)c3)c(CN(C)[C@@](C)(CO)C(=O)O)cc2Cl)c1C` [Example 5014, (2S,2′S)-2,2′-((((((2,2′-dimethyl-[1,1′-biphenyl]-3,3′-diyl)bis(methylene))bis(oxy))bis(5-chloro-2-((3,5-difluorobenzyl)oxy)-4,1-phenylene))bis(methylene))bis(methylazanediyl))bis(3-hydroxy-2-methylpropanoic acid)], the IC50 lay within 20.1 to 90 nM.

As to `Cc1c(COc2cc(OCc3cc(F)cc(F)c3)c(CN(C)[C@H](C(=O)O)C(C)C)cc2Cl)cccc1-c1cccc(COc2cc(OCc3cc(F)cc(F)c3)c(CN(C)[C@H](C(=O)O)C(C)C)cc2Cl)c1C` [Example 5015, (2S,2′S)-2,2′-((((((2,2′-dimethyl-[1,1′-biphenyl]-3,3′-diyl)bis(methylene))bis(oxy))bis(5-chloro-2-((3,5-difluorobenzyl)oxy)-4,1-phenylene))bis(methylene))bis(methylazanediyl))bis(3-methylbutanoic acid)], the IC50 was 20.1 to 90 nM.

Take `Cc1c(COc2cc(OCc3cc(F)cc(F)c3)c(CN(C)[C@@H](CC(C)C)C(=O)O)cc2Cl)cccc1-c1cccc(COc2cc(OCc3cc(F)cc(F)c3)c(CN(C)[C@@H](CC(C)C)C(=O)O)cc2Cl)c1C` [Example 5017, (2S,2′S)-2,2′-((((((2,2′-dimethyl-[1,1′-biphenyl]-3,3′-diyl)bis(methylene))bis(oxy))bis(5-chloro-2-((3,5-difluorobenzyl)oxy)-4,1-phenylene))bis(methylene))bis(methylazanediyl))bis(4-methylpentanoic acid)]: the IC50 was 0.04 to 20 nM.

With `Cc1c(COc2cc(OCc3ccc(-n4cccn4)nc3)c(CN[C@H](C(=O)O)[C@@H](C)O)cc2Cl)cccc1-c1cccc(COc2cc(OCc3ccc(-n4cccn4)nc3)c(CN[C@H](C(=O)O)[C@@H](C)O)cc2Cl)c1C` [Example 5018, (2S,2′S,3R,3′R)-2,2′-((((((2,2′-dimethyl-[1,1′-biphenyl]-3,3′-diyl)bis(methylene))bis(oxy))bis(2-((6-(1H-pyrazol-1-yl)pyridin-3-yl)methoxy)-5-chloro-4,1-phenylene))bis(methylene))bis(azanediyl))bis(3-hydroxybutanoic acid)], the half-maximal inhibitory concentration (IC50) is 0.04 to 20 nM.

With `Cc1c(COc2cc(OCc3ccc(-n4cccn4)nc3)c(CNC(CO)CO)cc2Cl)cccc1-c1cccc(COc2cc(OCc3ccc(-n4cccn4)nc3)c(CNC(CO)CO)cc2Cl)c1C` [Example 5019, 2,2′-((((((2,2′-dimethyl-[1,1′-biphenyl]-3,3′-diyl)bis(methylene))bis(oxy))bis(2-((6-(1H-pyrazol-1-yl)pyridin-3-yl)methoxy)-5-chloro-4,1-phenylene))bis(methylene))bis(azanediyl))bis(propane-1,3-diol)], the IC50 was 20.1 to 90 nM.

For `Cc1c(COc2cc(OCc3ccc(-n4cccn4)nc3)c(CNC(C)(CO)CO)cc2Cl)cccc1-c1cccc(COc2cc(OCc3ccc(-n4cccn4)nc3)c(CNC(C)(CO)CO)cc2Cl)c1C` [Example 5020, 2,2′-((((((2,2′-dimethyl-[1,1′-biphenyl]-3,3′-diyl)bis(methylene))bis(oxy))bis(2-((6-(1H-pyrazol-1-yl)pyridin-3-yl)methoxy)-5-chloro-4,1-phenylene))bis(methylene))bis(azanediyl))bis(2-methylpropane-1,3-diol)], the IC50 was 0.04 to 20 nM.

Turning to `Cc1c(COc2cc(OCc3ccc(-n4cccn4)nc3)c(CN3CCCC[C@H]3C(=O)O)cc2Cl)cccc1-c1cccc(COc2cc(OCc3ccc(-n4cccn4)nc3)c(CN3CCCC[C@H]3C(=O)O)cc2Cl)c1C` [Example 5021, (2S,2′S)-1,1′-(((((2,2′-dimethyl-[1,1′-biphenyl]-3,3′-diyl)bis(methylene))bis(oxy))bis(2-((6-(1H-pyrazol-1-yl)pyridin-3-yl)methoxy)-5-chloro-4,1-phenylene))bis(methylene))bis(piperidine-2-carboxylic acid)], the IC50 fell in the range of 0.04 to 20 nM.

For the compound `Cc1c(COc2cc(OCc3ccc(-n4cccn4)nc3)c(CN[C@@](C)(CO)C(=O)O)cc2Cl)cccc1-c1cccc(COc2cc(OCc3ccc(-n4cccn4)nc3)c(CN[C@@](C)(CO)C(=O)O)cc2Cl)c1C` [Example 5022, (2S,2′S)-2,2′-((((((2,2′-dimethyl-[1,1′-biphenyl]-3,3′-diyl)bis(methylene))bis(oxy))bis(2-((6-(1H-pyrazol-1-yl)pyridin-3-yl)methoxy)-5-chloro-4,1-phenylene))bis(methylene))bis(azanediyl))bis(3-hydroxy-2-methylpropanoic acid)], the IC50 is 0.04 to 20 nM.

Consider `Cc1c(COc2cc(OCc3ccc(-n4cccn4)nc3)c(CN(C)C(C)(CO)CO)cc2Cl)cccc1-c1cccc(COc2cc(OCc3ccc(-n4cccn4)nc3)c(CN(C)C(C)(CO)CO)cc2Cl)c1C` [Example 5023, 2,2′-((((((2,2′-dimethyl-[1,1′-biphenyl]-3,3′-diyl)bis(methylene))bis(oxy))bis(2-((6-(1H-pyrazol-1-yl)pyridin-3-yl)methoxy)-5-chloro-4,1-phenylene))bis(methylene))bis(methylazanediyl))bis(2-methylpropane-1,3-diol)], for which the IC50 fell in the range of 20.1 to 90 nM.

The same test, now with this note: numeric IC50; PD-L1-His 10 nM, PD-1-Ig 20 nM; read-out: Range or IC50.
Take `CCC[C@@H](C(=O)O)N(C)Cc1cc(Cl)c(OCc2cccc(-c3cccc(COc4cc(OCc5cc(F)cc(F)c5)c(CN(C)[C@@H](CCC)C(=O)O)cc4Cl)c3C)c2C)cc1OCc1cc(F)cc(F)c1` [Example 5016, (2S,2′S)-2,2′-((((((2,2′-dimethyl-[1,1′-biphenyl]-3,3′-diyl)bis(methylene))bis(oxy))bis(5-chloro-2-((3,5-difluorobenzyl)oxy)-4,1-phenylene))bis(methylene))bis(methylazanediyl))dipentanoic acid]: the IC50 is 31 nM.
